In US10047105B2, “Gyrase inhibitors” (Merck Sharp & Dohme Corp., priority 2009, dated 2018) one finds MIC Spn52 and MIC, SA data, which are given here for 40 compounds.

The test system of assay [1] is S. pneumoniae ATCC 51916. Description: MIC, S. pneumoniae. In kind it is cell-based. The following applies: S. pneumoniae.
Assay [2] relates to S. aureus ATCC 13709. The assay can be described thus: MIC, antibacterial potency, S. aureus. In kind it is cell-based. The settings on record: S. aureus.

Converted amounts (≈) assume the structure as drawn.

In the case of `CCc1[nH]c2nc(Sc3nc(C(=O)O)cs3)nc(N3CCCC(CO)C3)c2c1Cl.O=C(O)C(F)(F)F` (centres unmarked) [700,408], in assay [1], the MIC Spn52 was greater than 64 mg/L. The same compound came in with an MIC, SA in assay [2] greater than 64 mg/L.

Regarding `CCc1[nH]c2nc(Oc3cccnc3)nc(Oc3cccnc3)c2c1Cl.O=C(O)C(F)(F)F` [700,410], the MIC Spn52 in assay [1] was 4 mg/L. Further, in assay [2], the MIC, SA came out at 1 mg/L.

Compound `CCc1[nH]c2nc(Sc3cc(OC)nc(OC)n3)nc(N3CC(O)C3)c2c1Cl.Cl.Cl` [700,411] registered an MIC Spn52 in assay [1] greater than 64 mg/L. The MIC, SA in assay [2] was greater than 64 mg/L.

In assay [1], `CCc1[nH]c2nc(Sc3cc(=O)n(CCC4CCCCC4)c(=O)[nH]3)nc(N3CC(O)C3)c2c1Br` [700,412] came in with an MIC Spn52 greater than 64 mg/L. The same compound registered an MIC, SA in assay [2] greater than 64 mg/L.

On to `CCCn1c(=O)cc(Sc2nc(N3CC(O)C3)c3c(Br)c(CC)[nH]c3n2)[nH]c1=O` [700,414], for which the MIC Spn52 in assay [1] was determined as 1 mg/L (≈ 2.08 µM). Further, the MIC, SA in assay [2] was no more than 0.5 mg/L.

In the case of `CCc1[nH]c2nc(Sc3cc(=O)n(CCC(F)(F)F)c(=O)[nH]3)nc(N3CC(O)C3)c2c1Br` [700,415], the MIC Spn52 in assay [1] came to 1 mg/L (≈ 1.87 µM). Further, in assay [2], the MIC, SA was no more than 0.5 mg/L.

As for `CCc1[nH]c2nc(Sc3cc(=O)n(CC4CC4)c(=O)[nH]3)nc(N3CC(O)C3)c2c1Br` [700,416], the MIC Spn52 in assay [1] was determined as 2 mg/L (≈ 4.05 µM). The same compound yielded an MIC, SA in assay [2] of no more than 0.5 mg/L.

In assay [1], `CCOc1ccc(Nc2nc(OCC)c3c(Br)c(CC)[nH]c3n2)cn1.O=C(O)C(F)(F)F` [700,417] had an MIC Spn52 of 16 mg/L. The MIC, SA in assay [2] turned out to be 1 mg/L.

In assay [1], `CCCn1c(=O)cc(Sc2nc(N3CC(O)C3)c3c(Cl)c(CC)[nH]c3n2)[nH]c1=O` [700,418] came in with an MIC Spn52 of 8 mg/L (≈ 18.3 µM). The MIC, SA in assay [2] was 1 mg/L (≈ 2.29 µM).

As to `CCc1[nH]c2nc(Sc3cnc(C#N)c(F)c3)nc(N3CC(O)C3)c2c1Cl.O=C(O)C(F)(F)F.O=C(O)C(F)(F)F` [700,422], in assay [1], the MIC Spn52 is greater than 64 mg/L. Moreover, the MIC, SA in assay [2] is greater than 64 mg/L.

Consider `CCc1[nH]c2nc(Sc3cnc4nccnc4c3)nc(N3CCOCC3)c2c1Br` [700,423], for which the MIC Spn52 in assay [1] amounted to 2 mg/L (≈ 4.23 µM). The compound further returned an MIC, SA in assay [2] of 1 mg/L (≈ 2.12 µM).

Compound `CCc1[nH]c2nc(Sc3cnc4nccnc4c3)nc(N3CCOCC3)c2c1Cl` [700,424] gave an MIC Spn52 in assay [1] of 1 mg/L (≈ 2.34 µM). This compound returned an MIC, SA in assay [2] of no more than 0.5 mg/L.

Turning to `CCc1[nH]c2nc(Sc3cnc4nccnc4c3)nc(N3CCCC(CO)C3)c2c1Cl` (centres unmarked) [700,425], the MIC Spn52 in assay [1] came to 2 mg/L (≈ 4.39 µM). For the same compound, the MIC, SA in assay [2] was no more than 0.5 mg/L.

The compound `CCc1[nH]c2nc(Sc3cnc4nccnc4c3)nc(N3CCC[C@H]3CO)c2c1Cl` [700,426] returned an MIC Spn52 in assay [1] of 1 mg/L (≈ 2.26 µM). Moreover, the MIC, SA in assay [2] worked out at 1 mg/L (≈ 2.26 µM).

For `CCc1[nH]c2nc(Sc3cnc4nccnc4c3)nc(N3CC[C@H](O)C3)c2c1Cl` [700,427], in assay [1], the MIC Spn52 worked out at 1 mg/L (≈ 2.34 µM). Besides, in assay [2], the MIC, SA is no more than 0.5 mg/L.

`CCc1[nH]c2nc(Sc3cnc4nccnc4c3)nc(N3CC[C@@H](O)C3)c2c1Cl` [700,428] yielded an MIC Spn52 in assay [1] of 1 mg/L (≈ 2.34 µM). Further, in assay [2], the MIC, SA is no more than 0.5 mg/L.

For `CCc1[nH]c2nc(Sc3cnc4nccnc4c3)nc(N3CCC(N4CCOCC4)C3)c2c1Cl` (centres unmarked) [700,429], the MIC Spn52 in assay [1] was found to be 2 mg/L (≈ 4.02 µM). In assay [2], this compound had an MIC, SA of no more than 0.5 mg/L.

For the compound `CCc1[nH]c2nc(Sc3cnc4nccnc4c3)nc(N3CC[C@@H](N(C)C)C3)c2c1Cl` [700,430], the MIC Spn52 in assay [1] turned out to be 32 mg/L (≈ 70.3 µM). In addition, the MIC, SA in assay [2] stood at 32 mg/L (≈ 70.3 µM).

In assay [1], `CCc1[nH]c2nc(Sc3cnc4nccnc4c3)nc(N(C)CC(O)C(O)C(O)C(O)CO)c2c1Cl` (centres unmarked) [700,431] had an MIC Spn52 greater than 64 mg/L. The MIC, SA in assay [2] is greater than 64 mg/L.

In the case of `CCc1[nH]c2nc(Sc3cnc4nccnc4c3)nc(Oc3cccnc3)c2c1Cl` [700,432], in assay [1], the MIC Spn52 is 4 mg/L (≈ 9.18 µM). The same compound displayed an MIC, SA in assay [2] of 1 mg/L (≈ 2.29 µM).

For the compound `CCc1[nH]c2nc(Sc3cc(=O)n(C)c(=O)[nH]3)nc(N3CC(O)C3)c2c1Br` [700,433], the MIC Spn52 in assay [1] is 1 mg/L (≈ 2.21 µM). Further, the MIC, SA in assay [2] is no more than 0.5 mg/L.

`CCc1[nH]c2nc(Sc3cnc4nccnc4c3)nc(N3CC(NS(C)(=O)=O)C3)c2c1Cl` [700,435] yielded an MIC Spn52 in assay [1] of 1 mg/L (≈ 2.04 µM). Also, the MIC, SA in assay [2] was no more than 0.5 mg/L.

On to `CCc1[nH]c2nc(Sc3cnc4nccnc4c3)nc(N3CC(NS(=O)(=O)CC(F)(F)F)C3)c2c1Cl` [700,436], for which the MIC Spn52 in assay [1] was determined as 1 mg/L (≈ 1.79 µM). Besides, the MIC, SA in assay [2] was no more than 0.5 mg/L.

For `CCc1[nH]c2nc(Sc3cnc4nccnc4c3)nc(N3CC(NS(=O)(=O)c4cnoc4C)C3)c2c1Cl` [700,437], the MIC Spn52 in assay [1] stood at 2 mg/L (≈ 3.58 µM). Also, the MIC, SA in assay [2] is no more than 0.5 mg/L.

`CCc1[nH]c2nc(Sc3cnc4nccnc4c3)nc(N3CC(NC(=O)COC)C3)c2c1Cl` [700,438] returned an MIC Spn52 in assay [1] of 1 mg/L (≈ 2.06 µM). The compound also returned an MIC, SA in assay [2] of no more than 0.5 mg/L.

In the case of `CCc1[nH]c2nc(Sc3cnc4nccnc4c3)nc(N3CC(NC(=O)c4cnccn4)C3)c2c1Cl` [700,439], in assay [1], the MIC Spn52 is 1 mg/L (≈ 1.93 µM). In addition, in assay [2], the MIC, SA is no more than 0.5 mg/L.

On to `CCc1[nH]c2nc(Sc3cnc4nccnc4c3)nc(N3CC(NC(=O)C4CC4)C3)c2c1Cl` [700,440], for which the MIC Spn52 in assay [1] is no more than 0.5 mg/L. For the same compound, the MIC, SA in assay [2] is no more than 0.5 mg/L.

`CCc1[nH]c2nc(Sc3cnc4nccnc4c3)nc(N3CC(NC(C)=O)C3)c2c1Cl` [700,441] registered an MIC Spn52 in assay [1] of 2 mg/L (≈ 4.4 µM). This compound also came in with an MIC, SA in assay [2] of no more than 0.5 mg/L.

`CCc1[nH]c2nc(Sc3cc(=O)n(CC(C)=O)c(=O)[nH]3)nc(N3CC(O)C3)c2c1Br` [700,442]: in assay [1], the MIC Spn52 amounted to 2 mg/L (≈ 4.04 µM). Further, the MIC, SA in assay [2] is no more than 0.5 mg/L.

The compound `CCOc1nc(Nc2ccc3nccnc3c2)nc2[nH]c(CC)c(Br)c12.O=C(O)C(F)(F)F` [700,443] registered an MIC Spn52 in assay [1] greater than 64 mg/L. For the same compound, the MIC, SA in assay [2] was greater than 64 mg/L.

For `CCc1[nH]c2nc(Sc3cnc4nccnc4c3)nc(N3CCN(CCN)CC3)c2c1Cl.O=C(O)C(F)(F)F` [700,444], in assay [1], the MIC Spn52 came to 8 mg/L. Moreover, the MIC, SA in assay [2] was 4 mg/L.

Consider `CCc1[nH]c2nc(Sc3cnc4nccnc4c3)nc(N3CCN(CCO)CC3)c2c1Cl.O=C(O)C(F)(F)F` [700,445], for which the MIC Spn52 in assay [1] amounted to 16 mg/L. The compound further came in with an MIC, SA in assay [2] of 16 mg/L.

In the case of `CCc1[nH]c2nc(Sc3cnc4c(N)nc(N)nc4c3)nc(N3CC(O)C3)c2c1Cl.O=C(O)C(F)(F)F.O=C(O)C(F)(F)F` [700,448], the MIC Spn52 in assay [1] was 2 mg/L. In addition, the MIC, SA in assay [2] was 1 mg/L.

Regarding `CCc1[nH]c2nc(Sc3cnc4nccnc4c3)nc(N3CC(NC(=O)c4cnc[nH]4)C3)c2c1Cl` [700,449], the MIC Spn52 in assay [1] was 1 mg/L (≈ 1.97 µM). The MIC, SA in assay [2] turned out to be 1 mg/L (≈ 1.97 µM).

Regarding `CCOc1nc(Nc2cnc3c(c2)nnn3C(C)C)nc2[nH]c(CC)c(Br)c12.O=C(O)C(F)(F)F` [700,450], the MIC Spn52 in assay [1] came out at 4 mg/L. In assay [2], the MIC, SA was no more than 0.5 mg/L.

In assay [1], `CCc1[nH]c2nc(Sc3cc(=O)n(CC(C)O)c(=O)[nH]3)nc(N3CC(O)C3)c2c1Br` (centres unmarked) [700,451] displayed an MIC Spn52 of 4 mg/L (≈ 8.04 µM). The same compound yielded an MIC, SA in assay [2] of 1 mg/L (≈ 2.01 µM).

`CCOc1nc(Nc2cnc3c(c2)c(=O)n(C)c(=O)n3C)nc2[nH]c(CC)c(Br)c12.O=C(O)C(F)(F)F` [700,452]: the MIC Spn52 in assay [1] is greater than 64 mg/L. This compound yielded an MIC, SA in assay [2] greater than 64 mg/L.

Compound `CCc1[nH]c2nc(Sc3cnc4nccnc4c3)nc(N3CC(NC(=O)c4csc(N)n4)C3)c2c1Cl` [700,453] returned an MIC Spn52 in assay [1] of no more than 0.5 mg/L. In assay [2], this compound had an MIC, SA of no more than 0.5 mg/L.

The compound `CCc1[nH]c2nc(Sc3cnc4nccnc4c3)nc(N3CC(NC(=O)c4cc(N)ccn4)C3)c2c1Cl` [700,454] showed an MIC Spn52 in assay [1] of 1 mg/L (≈ 1.88 µM). Moreover, in assay [2], the MIC, SA is no more than 0.5 mg/L.

Take `CCc1[nH]c2nc(Sc3cnc4nccnc4c3)nc(NCCCn3ccnc3)c2c1Cl` [700,455]: the MIC Spn52 in assay [1] came to 2 mg/L (≈ 4.29 µM). Also, in assay [2], the MIC, SA came to 2 mg/L (≈ 4.29 µM).
